The text below walks through data of paper PMC6493301, “Targeting host metabolism by inhibition of acetyl-Coenzyme A carboxylase reduces flavivirus infection in mouse models” (Emerging Microbes & Infections, 2019).

Like-named read-outs stand apart in the source and are kept apart here. Bounds are passed on as bounds.

Data set [1] concerns WNV. The experiment in a line: Virucidal assay, WNV preincubated with compound then titrated by plaque assay. The following applies: 5 µg/mL, 1 h at 37°C.
Another data set has as its target human ACC2 (Homo sapiens, UniProt O00763). The experiment in a line: Radiometric ACC inhibition assay, human ACC2. The data set is classed as biochemical. The method, then: (§1) (-)-Epicgallocathechin gallate, EGCG (catalog no. 0981 S) was from Extrasynthese (Genay, France). […] Apparent permeability was assessed in low-efflux MDCKII cells. In vitro potencies of the inhibitors were determined using a radiometric assay. For tissue culture experiments, drugs were suspended in DMSO. Control cells were treated in parallel with the same amount of DMSO (vehicle). Cell viability was estimated in uninfected cells by ATP measurement using Cell Titer Glo luminescent cell viability assay (catalog no. G7579; Promega, Madison, WI). […] Cells were lysed by adding equal amounts of Cell Titer Glo reagent (100 µL/well) and gentle rocking (2 min) in an orbital shaker. The amount of ATP in each sample was determined by luminescence measurement using white microplates and a TECAN Genius (Zurich, Switzerland) microplate reader.

The next data set deals with human ACC1 (Homo sapiens, UniProt Q13085). The experiment in a line: Radiometric ACC inhibition assay, human ACC1. The data set is classed as biochemical. The method, then:
as §1

Data set [2] in a line: Mouse pharmacokinetics after a single oral dose. Conditions: fasted male mice, mean ± SD, n = 3; for Cmax: male, read-out: Cmax, maximum plasma-concentration; for Cmax / AUC / Tmax: mouse, in vivo, po; for AUC: 0.5% methyl cellulose suspension, read-out: AUC(Exp), area under the plasma-concentration-time curve; for Tmax: read-out: Tmax, time to reach the maximum plasma-concentration. The data set is classed as in vivo. As for the experimental part:
(§2) Pharmacokinetics was analyzed after a single oral (p.o.) dose of the compounds (in a 0.5% methyl cellulose suspension) administered to fasted male mice. […] Antiviral activity in vivo was determined using eight-week-old Swiss albino CD-1 female mice (Envigo, Huntingdon, UK). […] Control mice were treated in parallel with drug vehicle (carboxymethylcellulose). For experiments evaluating the effect of genetic deletion of ACC2 gene on WNV infection, a breeding colony of C57BL/6 ACC2^-/- mice was established from two heterozygous Acab^tm1Dejs females. Age- and sex-matched eight-week-old ACC2^-/- and control wild type (WT) mice were challenged with WNV (1 × 10^4 PFU/animal, i.p.). Animals were monitored daily and received water and food ad libitum.

Another data set has as its target rat ACC1 (Rattus norvegicus, UniProt P11497). The experiment in a line: Radiometric ACC inhibition assay, rat ACC1. The data set is classed as biochemical. As for the experimental part: as §1
The nature of data set [3]: Cell viability by ATP measurement (Cell Titer Glo) in uninfected Vero cells. The following applies: African green monkey. The method, then: as §1
The subject of data set [4] is WNV. The experiment in a line: Antiviral activity against WNV in mice, viral burden by quantitative RT-PCR. It counts as in vivo. The following applies: CD-1 female mice, 20 mg/kg p.o. twice a day. The method, then: as §2
RNA was automatically extracted using a QIAcube equipment (QIAGEN GmbH, Hilden, Germany) and QIAamp viral RNA Mini Kit (QIAGEN, catalog no. 52906) for sera or RNeasy Mini Kit (QIAGEN, catalog no. 74106) for tissue homogenates. The content of viral RNA in each sample was analyzed by real-time fluorogenic reverse transcriptase PCR by comparison with previously titrated samples and determined as PFU equivalents/mL [22].

For a further data set, the system named is ZIKV. The experiment in a line: ZIKV multiplication in Vero cells, virus yield by plaque assay. Conditions: for EC50: Zika virus, Vero, 24 h, read-out: EC50 ZIKV; for SI (CC50/EC50) ZIKV: calculated at 24 h.
Data set [5] concerns WNV. The experiment in a line: WNV multiplication in Vero cells, virus yield by plaque assay. The following applies: for EC50: West Nile virus, Vero, 24 h, read-out: EC50 WNV; for SI (CC50/EC50) WNV: calculated at 24 h.
The next data set addresses rat ACC2 (Rattus norvegicus, UniProt Q1HEC0). The experiment in a line: Radiometric ACC inhibition assay, rat ACC2. It counts as biochemical. As for the experimental part:
as §1

Data set [6] can be described thus: Apparent permeability in low-efflux MDCKII cells. Conditions: dog, MDCK. The method, then:
as §1

The test system of data set [7] is WNV. The experiment in a line: Time of addition assay, WNV-infected Vero cells. It counts as cell-based, West Nile virus. The following applies: 5 µg/mL, MOI 1 PFU/cell, 24 h.
The test system of the next data set is DENV. The experiment in a line: DENV multiplication in Vero cells, virus yield by plaque assay. Conditions: for EC50: Dengue virus, Vero, 48 h, read-out: EC50 DENV; for SI (CC50/EC50) DENV: calculated at 48 h.
The mark [8] stands for this setting: WNV i.p., 7 days post-infection.
Where [9] appears, read: single p.o. dose 100 mg/kg, 100 mg/kg.
Setting [10] is: 100 mg/kg, single p.o. dose 100 mg/kg.

Sequence of rat ACC2 (Q1HEC0 17-2455): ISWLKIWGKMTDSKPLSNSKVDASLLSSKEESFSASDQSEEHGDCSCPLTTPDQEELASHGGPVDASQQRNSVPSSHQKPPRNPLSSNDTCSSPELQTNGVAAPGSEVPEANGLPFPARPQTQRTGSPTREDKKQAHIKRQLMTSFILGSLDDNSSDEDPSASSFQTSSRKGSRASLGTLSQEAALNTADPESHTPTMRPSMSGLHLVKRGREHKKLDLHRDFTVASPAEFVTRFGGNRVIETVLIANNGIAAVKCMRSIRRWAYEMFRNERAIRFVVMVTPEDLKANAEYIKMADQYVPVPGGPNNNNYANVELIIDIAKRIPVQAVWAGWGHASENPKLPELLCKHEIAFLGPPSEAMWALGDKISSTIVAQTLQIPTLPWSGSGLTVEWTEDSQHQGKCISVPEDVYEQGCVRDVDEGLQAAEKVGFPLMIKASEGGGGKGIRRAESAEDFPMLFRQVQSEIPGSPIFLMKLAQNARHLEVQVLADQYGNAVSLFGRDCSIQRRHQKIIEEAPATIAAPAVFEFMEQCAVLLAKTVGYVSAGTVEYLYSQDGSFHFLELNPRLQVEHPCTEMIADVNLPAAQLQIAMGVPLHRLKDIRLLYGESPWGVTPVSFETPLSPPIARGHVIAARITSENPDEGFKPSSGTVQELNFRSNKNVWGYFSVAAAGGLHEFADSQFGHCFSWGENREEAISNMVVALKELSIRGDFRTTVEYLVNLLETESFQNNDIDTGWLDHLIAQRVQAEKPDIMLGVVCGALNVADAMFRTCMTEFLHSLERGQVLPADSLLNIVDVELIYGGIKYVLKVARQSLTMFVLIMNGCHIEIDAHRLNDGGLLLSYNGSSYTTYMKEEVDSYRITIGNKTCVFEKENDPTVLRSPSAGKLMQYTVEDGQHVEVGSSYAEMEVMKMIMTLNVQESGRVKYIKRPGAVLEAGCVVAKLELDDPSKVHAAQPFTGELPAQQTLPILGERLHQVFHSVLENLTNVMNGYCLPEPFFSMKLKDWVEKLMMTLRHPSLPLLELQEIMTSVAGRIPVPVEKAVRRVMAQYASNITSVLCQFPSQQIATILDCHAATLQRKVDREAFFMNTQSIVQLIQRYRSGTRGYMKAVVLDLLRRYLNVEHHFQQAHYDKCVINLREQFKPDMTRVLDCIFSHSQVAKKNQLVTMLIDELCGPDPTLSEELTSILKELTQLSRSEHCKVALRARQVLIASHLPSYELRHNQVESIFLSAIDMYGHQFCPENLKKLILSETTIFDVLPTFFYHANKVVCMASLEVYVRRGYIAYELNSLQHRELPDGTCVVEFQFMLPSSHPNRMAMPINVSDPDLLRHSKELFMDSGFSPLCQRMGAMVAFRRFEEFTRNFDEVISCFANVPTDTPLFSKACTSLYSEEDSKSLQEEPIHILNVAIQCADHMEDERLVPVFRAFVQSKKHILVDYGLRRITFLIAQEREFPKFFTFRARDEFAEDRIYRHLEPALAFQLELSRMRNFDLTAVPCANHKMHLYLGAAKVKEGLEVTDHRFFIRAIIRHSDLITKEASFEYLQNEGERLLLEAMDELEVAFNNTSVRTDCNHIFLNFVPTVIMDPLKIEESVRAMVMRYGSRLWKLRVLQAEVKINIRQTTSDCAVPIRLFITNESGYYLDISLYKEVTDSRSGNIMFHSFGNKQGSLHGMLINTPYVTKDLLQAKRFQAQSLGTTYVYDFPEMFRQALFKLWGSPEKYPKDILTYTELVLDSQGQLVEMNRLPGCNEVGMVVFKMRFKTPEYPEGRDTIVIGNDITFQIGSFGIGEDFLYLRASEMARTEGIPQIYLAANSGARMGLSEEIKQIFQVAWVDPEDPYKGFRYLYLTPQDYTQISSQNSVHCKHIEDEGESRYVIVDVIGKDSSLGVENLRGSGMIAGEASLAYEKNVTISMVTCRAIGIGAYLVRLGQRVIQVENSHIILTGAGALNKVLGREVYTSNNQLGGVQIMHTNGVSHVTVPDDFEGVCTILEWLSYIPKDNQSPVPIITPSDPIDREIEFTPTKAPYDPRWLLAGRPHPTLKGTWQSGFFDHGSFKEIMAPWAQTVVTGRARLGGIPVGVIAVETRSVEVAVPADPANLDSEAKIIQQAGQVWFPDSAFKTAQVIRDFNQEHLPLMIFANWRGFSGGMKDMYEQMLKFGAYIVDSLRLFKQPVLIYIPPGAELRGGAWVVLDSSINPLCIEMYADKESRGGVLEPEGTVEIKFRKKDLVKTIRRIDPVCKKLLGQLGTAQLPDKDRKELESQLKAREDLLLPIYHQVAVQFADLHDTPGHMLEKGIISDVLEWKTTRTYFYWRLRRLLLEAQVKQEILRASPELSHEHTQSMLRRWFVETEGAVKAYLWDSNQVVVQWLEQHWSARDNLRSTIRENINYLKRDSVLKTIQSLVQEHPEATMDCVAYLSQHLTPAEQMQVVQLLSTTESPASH
Sequence of human ACC2 (O00763 whole entry): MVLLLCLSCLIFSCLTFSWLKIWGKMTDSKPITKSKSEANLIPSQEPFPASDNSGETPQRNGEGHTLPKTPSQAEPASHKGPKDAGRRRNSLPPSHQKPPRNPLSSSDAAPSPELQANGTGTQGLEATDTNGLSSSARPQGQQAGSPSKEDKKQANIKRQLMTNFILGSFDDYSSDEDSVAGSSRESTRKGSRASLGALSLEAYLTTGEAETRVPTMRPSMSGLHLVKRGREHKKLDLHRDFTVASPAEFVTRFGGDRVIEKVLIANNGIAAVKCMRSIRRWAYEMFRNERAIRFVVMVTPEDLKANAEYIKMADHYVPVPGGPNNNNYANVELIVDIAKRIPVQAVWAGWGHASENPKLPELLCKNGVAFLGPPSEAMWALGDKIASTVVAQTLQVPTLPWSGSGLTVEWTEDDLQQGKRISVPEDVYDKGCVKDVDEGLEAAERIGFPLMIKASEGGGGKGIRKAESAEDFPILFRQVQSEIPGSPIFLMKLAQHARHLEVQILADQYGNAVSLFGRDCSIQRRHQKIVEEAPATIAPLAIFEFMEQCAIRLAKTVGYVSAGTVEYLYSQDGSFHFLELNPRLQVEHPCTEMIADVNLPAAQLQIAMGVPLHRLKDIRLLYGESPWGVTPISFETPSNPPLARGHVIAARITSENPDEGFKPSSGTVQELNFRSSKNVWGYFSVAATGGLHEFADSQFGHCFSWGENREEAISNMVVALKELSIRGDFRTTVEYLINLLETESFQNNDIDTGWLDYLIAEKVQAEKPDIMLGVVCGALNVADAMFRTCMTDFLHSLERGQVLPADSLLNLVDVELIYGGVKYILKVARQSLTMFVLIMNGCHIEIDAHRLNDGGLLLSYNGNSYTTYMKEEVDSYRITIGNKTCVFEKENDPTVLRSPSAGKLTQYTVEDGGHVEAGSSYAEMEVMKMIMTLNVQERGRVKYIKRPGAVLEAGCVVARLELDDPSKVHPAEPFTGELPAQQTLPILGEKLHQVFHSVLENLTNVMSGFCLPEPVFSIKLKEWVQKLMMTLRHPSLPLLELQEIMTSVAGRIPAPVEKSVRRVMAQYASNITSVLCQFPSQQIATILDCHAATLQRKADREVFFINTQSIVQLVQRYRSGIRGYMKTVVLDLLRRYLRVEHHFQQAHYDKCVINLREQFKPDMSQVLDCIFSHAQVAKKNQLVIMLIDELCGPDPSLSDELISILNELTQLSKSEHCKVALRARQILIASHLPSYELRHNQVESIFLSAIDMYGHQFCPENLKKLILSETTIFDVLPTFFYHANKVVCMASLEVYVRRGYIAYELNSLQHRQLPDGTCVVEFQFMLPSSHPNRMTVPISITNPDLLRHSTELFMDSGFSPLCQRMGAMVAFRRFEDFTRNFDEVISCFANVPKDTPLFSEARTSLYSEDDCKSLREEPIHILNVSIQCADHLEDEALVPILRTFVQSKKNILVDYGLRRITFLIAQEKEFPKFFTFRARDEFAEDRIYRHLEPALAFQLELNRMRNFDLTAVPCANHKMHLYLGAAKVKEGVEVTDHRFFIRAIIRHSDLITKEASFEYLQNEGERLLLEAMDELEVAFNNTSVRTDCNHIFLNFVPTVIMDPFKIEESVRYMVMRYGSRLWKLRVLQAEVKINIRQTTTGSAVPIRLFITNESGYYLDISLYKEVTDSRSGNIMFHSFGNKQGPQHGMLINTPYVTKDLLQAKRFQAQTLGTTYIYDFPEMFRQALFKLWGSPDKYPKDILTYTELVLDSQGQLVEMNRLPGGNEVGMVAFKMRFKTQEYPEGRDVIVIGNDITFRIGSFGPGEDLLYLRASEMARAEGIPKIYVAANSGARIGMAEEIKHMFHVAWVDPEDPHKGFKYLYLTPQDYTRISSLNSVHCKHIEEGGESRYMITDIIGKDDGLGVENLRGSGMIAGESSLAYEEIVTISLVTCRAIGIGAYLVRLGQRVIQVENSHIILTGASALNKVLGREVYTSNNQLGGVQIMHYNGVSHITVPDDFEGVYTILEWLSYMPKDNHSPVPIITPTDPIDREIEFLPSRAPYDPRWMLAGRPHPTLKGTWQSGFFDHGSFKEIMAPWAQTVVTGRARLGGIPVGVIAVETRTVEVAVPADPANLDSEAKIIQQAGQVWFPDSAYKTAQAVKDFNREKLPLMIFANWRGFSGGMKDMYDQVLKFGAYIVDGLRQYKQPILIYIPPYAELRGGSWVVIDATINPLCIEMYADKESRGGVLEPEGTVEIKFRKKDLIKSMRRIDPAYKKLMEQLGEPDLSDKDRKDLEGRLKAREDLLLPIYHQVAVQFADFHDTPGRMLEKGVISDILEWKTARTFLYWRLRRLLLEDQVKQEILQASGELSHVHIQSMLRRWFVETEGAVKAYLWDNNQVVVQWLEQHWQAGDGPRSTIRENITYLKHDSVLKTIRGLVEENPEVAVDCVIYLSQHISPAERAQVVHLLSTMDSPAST

Take `O=C(O[C@@H]1Cc2c(O)cc(O)cc2O[C@@H]1c1cc(O)c(O)c(O)c1)c1cc(O)c(O)c(O)c1` [EGCG, (-)-Epicgallocathechin gallate, reference compound]: the “Virucidal effect, remaining WNV infectivity” value in the data set with WNV [1] was “virucidal effect”.

With `Cc1nc2ccc(C(=O)N3CCC4(CC3)CC(=O)c3c(cnn3C(C)C)C4)cc2[nH]1` [PF-05175157], the IC50 was determined as 0.033 ± 0.004 µM on human ACC2 (radiometric assay, geometric mean ± SEM, n = 3, read-out: IC50 human ACC2); 0.027 ± 0.003 µM at human ACC1 (radiometric assay, geometric mean ± SEM, n = 3, read-out: IC50 human ACC1); 0.024 ± 0.001 µM against rat ACC1; 0.05 ± 0.003 µM at rat ACC2. The Cmax in data set [2] (15 mg/kg, single p.o. dose 15 mg/kg) stood at 903 ± 495 ng/mL. Also, the AUC in data set [2] (single p.o. dose 15 mg/kg) is 2170 ± 384 ng·h/mL. In data set [2] (single p.o. dose 15 mg/kg), the Tmax is 100 ± 121 min. This molecule came in with a CC50 at 24 h in [3] of 590 ± 37 µM. In addition, the CC50 at 48 h in data set [3] was found to be 236 ± 11 µM. In the data set with WNV [4] (WNV 1 × 10^4 PFU i.p., 3 and 4 days after infection), the “Viral load in plasma (serum) vs vehicle” value is given as “significant reduction of viral load in plasma”. In the data set with WNV [4] (setting [8]), the “Viral RNA in the kidney vs vehicle” value is listed as “significant reduction in the amount of viral RNA in the kidney”. For the same molecule, the “Viral RNA in the lung vs vehicle” value with WNV [4] (setting [8]) is “tendency for a reduction in the amount of viral RNA in the lung”. The EC50 in the data set on ZIKV was less than 1.2 µM; in the data set with WNV [5] it was 2.7 ± 1.3 µM; in the data set with DENV it was 1 ± 0.3 µM. Moreover, the “Virucidal effect, remaining WNV infectivity” value with WNV [1] is “Lack of virucidal effect”. Moreover, the Papp in [6] amounted to 7 ×10⁻⁶ cm/s. Moreover, the “WNV yield, drug added only 1 h before virus inoculation (pre-infection)” value (“WNV yield … (pre-infection)” for short) in the data set on WNV [7] is reported as “did not affect WNV infection”. Moreover, the “WNV yield, drug maintained after virus inoculation (post-infection)” value in the data set on WNV [7] is reported as “reduced viral production”.

As to `CC(C)n1ncc2c1C(=O)CC1(CCN(C(=O)c3cc4ncccc4[nH]3)CC1)C2` [PF-05206574], the IC50 amounted to 0.022 ± 0.009 µM on human ACC2, 0.019 ± 0.004 µM against human ACC1, 0.014 ± 0.003 µM at rat ACC1 and 0.018 ± 0.004 µM against rat ACC2. In addition, the “Cmax, maximum plasma-concentration” value in data set [2] (setting [9]) was found to be 760 ± 240 ng/mL. In addition, the Cmax in [2] (setting [10]) lay in the range of 760 to 1070 ng/mL. Further, in [2] (single p.o. dose 100 mg/kg), the AUC amounted to 3700 ± 1440 ng·h/mL. Moreover, in [2] (single p.o. dose 100 mg/kg), the Tmax turned out to be 23 ± 12 min. Moreover, the CC50 at 24 h in data set [3] is greater than 1280 µM. Further, the CC50 at 48 h in data set [3] is 415 ± 67 µM. Moreover, the EC50 is less than 1.3 µM in the data set on ZIKV, 1.9 ± 0.9 µM in the data set with WNV [5] and less than 1.3 µM in the data set on DENV. In the data set with ZIKV, the “SI (CC50/EC50) ZIKV” value was greater than 982. Besides, the “SI (CC50/EC50) WNV” value in the data set on WNV [5] was greater than 672. Also, the “Virucidal effect, remaining WNV infectivity” value with WNV [1] is listed as “Lack of virucidal effect”. Moreover, in data set [6], the Papp amounted to 19 ×10⁻⁶ cm/s. Besides, the “WNV yield … (pre-infection)” value in the data set on WNV [7] is listed as “reduced the infection”. Besides, the “SI (CC50/EC50) DENV” value in the data set on DENV is on record as greater than 319.

For `COc1ccc2ncc(C(=O)N3CCC4(CC3)CC(=O)c3c(cnn3C(C)C)C4)cc2c1` [PF-06256254], it took 0.01 ± 0.002 µM to reach half-maximal inhibition at human ACC2 (IC50). For the same molecule, the IC50 against human ACC1 was 0.01 ± 0.002 µM. Besides, in data set [2] (setting [9]), the “Cmax, maximum plasma-concentration” value came out at 1070 ± 452 ng/mL. Moreover, the Cmax in [2] (setting [10]) was 760 to 1070 ng/mL. For the same molecule, in [2] (single p.o. dose 100 mg/kg), the AUC was 2900 ± 1070 ng·h/mL and the Tmax was 33 ± 25.8 min. At rat ACC1, this molecule registered an IC50 of 0.011 µM. Also, in data set [3], it took 718 ± 314 µM to reach half-maximal cytotoxicity (CC50 at 24 h) and the CC50 at 48 h was 202 ± 22 µM. For the same molecule, in the data set with ZIKV, the EC50 was less than 1.2 µM and the “SI (CC50/EC50) ZIKV” value is given as greater than 598. Also, in the data set with WNV [5], the EC50 is less than 1.2 µM and the “SI (CC50/EC50) WNV” value was greater than 598. The “Virucidal effect, remaining WNV infectivity” value in the data set with WNV [1] is listed as “Lack of virucidal effect”. Further, half-maximal inhibition at rat ACC2 (IC50) was put at 0.015 µM. In addition, in data set [6], the Papp amounted to 24 ×10⁻⁶ cm/s. The “WNV yield … (pre-infection)” value in the data set on WNV [7] is on record as “reduced the infection”. Besides, in the data set with DENV, the EC50 was 1.5 ± 0.4 µM and the “SI (CC50/EC50) DENV” value was 135.
